Measurements: paper PMC12024561, “Production, Biochemical Characterization, and Application of Laccase from Halophilic Curvularia lunata MLK46 Recovered from Mangrove Rhizosphere” (Biology, 2025)

Test system: T1, laccase from C. lunata MLK46 (MLK46 laccase)
T1 construct: gene EC 1.10.3.2; secreted native enzyme purified from culture filtrate (ammonium sulphate, DEAE-Sepharose)
Assay: spectrophotometric oxidation assay, Lineweaver-Burk
Type: biochemical, Curvularia lunata
Conditions: free enzyme, O2 as electron acceptor, pH and temperature of kinetics not clearly stated ("stated conditions")

Question: For `Oc1c(Cl)cccc1Cl` [2,6-dichlorophenol], which Km is on record?
Answer: 5.55 mM

Question: Which Km (A420, standard assay at 50 °C) does the source give for `CCn1c(=NN=c2sc3cc(S(=O)(=O)O)ccc3n2CC)sc2cc(S(=O)(=O)O)ccc21` [ABTS, 2,2’-azino-bis(3-ethylbenzothiazoline-6-sulfonic acid)] here?
Answer: 4.17 mM

Question: For `COc1ccccc1O` [guaiacol], which Km is on record?
Answer: 10.3 mM

Question: Which Km does the source give for `COc1cc(-c2ccc(N)c(OC)c2)ccc1N` [o-dianisidine] here?
Answer: 2.7 mM
